In US20010021514A1, “Luminescent metal-ligand complexes” (priority 1999, published 2001):
Where two headings read alike, the source gives them in different places.

Key:
[1] = background statement on known luminophores; cited from earlier work
[2] = Photoluminescence properties of the probe (spectra, Stokes' shift, lifetime, extinction); assay type: physicochemical
Description: Photoluminescence may be characterized by a number of parameters, including extinction coefficient, excitation and emission spectrum, Stokes' shift, luminescence lifetime, and quantum yield. An extinction coefficient is a wavelength-dependent measure of the absorbing power of a luminophore. An excitation spectrum is the dependence of emission intensity upon the excitation wavelength, measured at a single constant emission wavelength. An emission spectrum is the wavelength distribution of the emission, measured after excitation with a single constant excitation wavelength. A Stokes' shift is the difference in wavelengths between the maximum of the emission spectrum and the maximum of the absorption spectrum. A luminescence lifetime is the average time that a luminophore spends in the excited state prior to returning to the ground state. A quantum yield is the ratio of the number of photons emitted to the number of photons absorbed by a luminophore.

[3] = Intrinsic polarization from excitation polarization spectra in vitrified solution; assay type: physicochemical; settings: for fundamental anisotropy r0: corresponding to the intrinsic polarization; for intrinsic polarization P0: excitation polarization spectra in vitrified solution (glycerol: water=6:4; −55° C.)
Description: Aspects of the invention include the use of selected long-lifetime metal-ligand complexes in luminescence polarization assays. Here, as elsewhere in the application, polarization assays encompass any assays involving detection of polarized light, including steady-steady and time-resolved assays, and computation of polarization and anisotropy functions, among others. […] Here, the invention was used without limitation to monitor interactions between human serum albumin (HSA) and goat-anti-HSA (IgG) antibodies. The HSA was labeled with a ruthenium-ligand complex polarization probe, Sunnyvale Red™ (SVR™), as described elsewhere in this application. […] These values were determined by measuring the excitation polarization spectra in vitrified solution (glycerol: water=6:4; −55° C.).

In the case of `O=C([O-])c1ccnc(-c2cc(C(=O)[O-])ccn2)c1.[Ru+2].c1ccc(-c2ccccn2)nc1.c1ccc(-c2ccccn2)nc1` [Ru(bpy)2dcbpy, ruthenium 2,2′-dibipyridyl 4,4′-dicarboxyl-2,2′-bipyridine], the “luminescence lifetime (general statement)” value [1] is listed as “roughly 400 nanoseconds”.
For Ru(bpy)2(dacbpy)-ITC [Sunnyvale Red™], the “Stokes' shift” value [2] was roughly 200 nm, the emission maximum [2] was 670 nm and the excitation maximum [2] was 488 nm. The luminescence lifetime [2] was “about 360 ns”, the excitation maximum ([2]; listed as SVR) was 487 nm and the luminescence lifetime ([2]; listed as SVR) was 360 ns. For the same molecule, the “extinction coefficient E(SVR)” value ([2]; used with A479 for dye concentration) was ~15,000, the “fundamental anisotropy r0” value [3] was “about 0.28” and the “fundamental anisotropy r0” value ([3]; listed as SVR) was 0.27. The “intrinsic polarization P0” value [3] was “about 0.37” and the “intrinsic polarization P0” value ([3]; listed as SVR) was 0.36.
